Laboratory results taken from PubChem BioAssay AID276 (DTP/NCI, 2004).
Where “and” joins values, the source holds several entries; their conditions need not be identical. Identical values can stand only once. Inconclusive results and toxic doses are left out.

Tested on: B6C3F1 mice, Lewis lung carcinoma iv, survival T/C
Test: NCI In Vivo Anticancer Drug Screen. Data for tumor model Lewis Lung Carcinoma (intravenous) in B6C3F1 mice
Conditions: endpoint: median survival time, higher = longer survival
Procedure, shortened: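 Transplantable tumor in mice; compound treated vs vehicle controls; read-out survival; value = treated/control (T/C).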

[1] = dose: 50.0 mg/kg/injection, schedule: Q01DX009 (ip), vehicle: saline with Tween-80
[2] = dose: 100.0 mg/kg/injection, schedule: Q01DX009 (ip), vehicle: saline with Tween-80
[3] = dose: 200.0 mg/kg/injection, schedule: Q01DX009 (ip), vehicle: saline with Tween-80
[4] = dose: 12.5 mg/kg/injection, schedule: Q01DX009 (ip), vehicle: Klucel (hydroxypropylcellulose) (HPC)
[5] = dose: 25.0 mg/kg/injection, schedule: Q01DX009 (ip), vehicle: Klucel (hydroxypropylcellulose) (HPC)
[6] = dose: 12.5 mg/kg/injection, schedule: Q01DX009 (ip), vehicle: saline
[7] = dose: 25.0 mg/kg/injection, schedule: Q01DX009 (ip), vehicle: saline
[8] = dose: 50.0 mg/kg/injection, schedule: Q01DX009 (ip), vehicle: saline
[9] = dose: 100.0 mg/kg/injection, schedule: Q01DX009 (ip), vehicle: saline
[10] = dose: 12.5 mg/kg/injection, schedule: Q01DX009 (ip), vehicle: saline with Tween-80
[11] = dose: 25.0 mg/kg/injection, schedule: Q01DX009 (ip), vehicle: saline with Tween-80

Q: With `Cc1nc(N)nc(N)c1-c1ccc(Cl)c(Cl)c1` as the molecule, how does the T/C (dose: 0.32 mg/kg/injection, schedule: Q01DX009 (ip), vehicle: saline) read?
A: The T/C was 97 % of control.

Q: What about the T/C (dose: 0.63 mg/kg/injection, schedule: Q01DX009 (ip), vehicle: saline) of the same molecule?
A: Its T/C is 109 % of control.

Q: And the T/C (dose: 1.25 mg/kg/injection, schedule: Q01DX009 (ip), vehicle: saline)?
A: Its T/C is 120 % of control.

Q: And the T/C (dose: 2.5 mg/kg/injection, schedule: Q01DX009 (ip), vehicle: saline)?
A: The T/C was 113 % of control.

Q: What about the T/C (dose: 5.0 mg/kg/injection, schedule: Q01DX009 (ip), vehicle: saline) of the same molecule?
A: The T/C was 124 % of control.

Q: And the T/C (dose: 10.0 mg/kg/injection, schedule: Q01DX009 (ip), vehicle: saline)?
A: The T/C was 112 % of control.

Q: Which results are given for `CCCCCCCCCCCC(=O)NC1CC(O[C@H]2C[C@](O)(C(=O)CO)Cc3c(O)c4c(c(O)c32)C(=O)c2c(OC)cccc2C4=O)OC(C)C1O` (some centres undefined)?
A: T/C (dose: 6.25 mg/kg/injection, schedule: Q01DX009 (ip), vehicle: distilled water + Tween-80): 96 % of control; T/C (dose: 12.5 mg/kg/injection, schedule: Q01DX009 (ip), vehicle: distilled water + Tween-80): 100 % of control; T/C (dose: 25.0 mg/kg/injection, schedule: Q01DX009 (ip), vehicle: distilled water + Tween-80): 102 % of control; T/C (dose: 50.0 mg/kg/injection, schedule: Q01DX009 (ip), vehicle: distilled water + Tween-80): 119 % of control

Q: What does the source list for `c1nc(N2CC2)c2cnn(C3CCCCO3)c2n1` (centres undefined)?
A: T/C [1]: 103 % of control; T/C [2]: 107 % of control; T/C [3]: 112 % of control

Q: `Cc1ccoc1` was tested. Which T/C (dose: 8.3 mg/kg/injection, schedule: Q03HX027 (ip), vehicle: saline with Tween-80) did it give?
A: The T/C was 107 % of control.

Q: What about the T/C (dose: 16.6 mg/kg/injection, schedule: Q03HX027 (ip), vehicle: saline with Tween-80) of the same molecule?
A: Its T/C is 112 % of control.

Q: What about the T/C (dose: 33.3 mg/kg/injection, schedule: Q03HX027 (ip), vehicle: saline with Tween-80) of the same molecule?
A: Its T/C is 100 % of control.

Q: What about the T/C (dose: 66.6 mg/kg/injection, schedule: Q03HX027 (ip), vehicle: saline with Tween-80) of the same molecule?
A: The T/C was 102 % of control.

Q: What does the source list for `Cc1ccc(NCCN(C)C)c2c(=O)c3cc(O)ccc3sc12`?
A: T/C (dose: 12.0 mg/kg/injection, schedule: Q01DX009 (ip), vehicle: Klucel (hydroxypropylcellulose) (HPC)): 101 % of control; T/C [4]: 103 % of control; T/C [5]: 105 % of control and 121 % of control; T/C (dose: 50.0 mg/kg/injection, schedule: Q01DX009 (ip), vehicle: Klucel (hydroxypropylcellulose) (HPC)): 121 % of control and 123 % of control; T/C (dose: 100.0 mg/kg/injection, schedule: Q01DX009 (ip), vehicle: Klucel (hydroxypropylcellulose) (HPC)): 120 % of control and 232 % of control; T/C (dose: 200.0 mg/kg/injection, schedule: Q01DX009 (ip), vehicle: Klucel (hydroxypropylcellulose) (HPC)): 155 % of control

Q: With `CC(C)C(N)C(=O)Nc1nncs1` (centres undefined) as the molecule, how does the T/C [6] read?
A: The T/C was 108 % of control.

Q: What about the T/C [7] of the same molecule?
A: The T/C was 104 % of control.

Q: And the T/C [8]?
A: Its T/C is 114 % of control and 121 % of control.

Q: And the T/C (dose: 50.62 mg/kg/injection, schedule: Q01DX009 (ip), vehicle: saline)?
A: Its T/C is 103 % of control.

Q: What about the T/C (dose: 50.62 mg/kg/injection, schedule: Q01DX009 (ip), vehicle: suspension in saline) of the same molecule?
A: Its T/C is 110 % of control.

Q: What about the T/C (dose: 67.5 mg/kg/injection, schedule: Q01DX009 (ip), vehicle: saline) of the same molecule?
A: The T/C was 103 % of control.

Q: What about the T/C (dose: 67.5 mg/kg/injection, schedule: Q01DX009 (ip), vehicle: suspension in saline) of the same molecule?
A: Its T/C is 124 % of control.

Q: What about the T/C (dose: 90.0 mg/kg/injection, schedule: Q01DX009 (ip), vehicle: saline) of the same molecule?
A: Its T/C is 100 % of control.

Q: And the T/C [9]?
A: The T/C was 165 % of control and 245 % of control.

Q: And the T/C (dose: 120.0 mg/kg/injection, schedule: Q01DX009 (ip), vehicle: saline)?
A: The T/C was 112 % of control.

Q: And the T/C (dose: 120.0 mg/kg/injection, schedule: Q01DX009 (ip), vehicle: suspension in saline)?
A: Its T/C is 157 % of control.

Q: What about the T/C (dose: 160.0 mg/kg/injection, schedule: Q01DX009 (ip), vehicle: saline) of the same molecule?
A: The T/C was 117 % of control.

Q: Which results are given for `C[CH2][Pb]([CH2]C)([CH2]C)[O]C(=O)COc1ccccc1`?
A: T/C (dose: 0.08 mg/kg/injection, schedule: Q01DX009 (ip), vehicle: saline with Tween-80): 107 % of control; T/C (dose: 0.15 mg/kg/injection, schedule: Q01DX009 (ip), vehicle: saline with Tween-80): 99 % of control; T/C (dose: 0.3 mg/kg/injection, schedule: Q01DX009 (ip), vehicle: saline with Tween-80): 99 % of control; T/C (dose: 0.6 mg/kg/injection, schedule: Q01DX009 (ip), vehicle: saline with Tween-80): 109 % of control; T/C (dose: 1.2 mg/kg/injection, schedule: Q01DX009 (ip), vehicle: saline with Tween-80): 108 % of control

Q: Which T/C (dose: 3.12 mg/kg/injection, schedule: Q01DX009 (ip), vehicle: suspension in saline) does the source give for `c1cc(-c2cc3ccc(C4=NCCN4)cc3[nH]2)ccc1C1=NCCN1` here?
A: The T/C was 100 % of control.

Q: What about the T/C (dose: 6.25 mg/kg/injection, schedule: Q01DX009 (ip), vehicle: suspension in saline) of the same molecule?
A: Its T/C is 120 % of control.

Q: And the T/C (dose: 12.5 mg/kg/injection, schedule: Q01DX009 (ip), vehicle: suspension in saline)?
A: The T/C was 115 % of control.

Q: And the T/C (dose: 25.0 mg/kg/injection, schedule: Q01DX009 (ip), vehicle: suspension in saline)?
A: Its T/C is 111 % of control.

Q: With `Cn1cnc([N+](=O)[O-])c1Sc1ncn[nH]1` as the molecule, how does the T/C [6] read?
A: The T/C was 104 % of control.

Q: And the T/C [7]?
A: The T/C was 111 % of control.

Q: What about the T/C [8] of the same molecule?
A: The T/C was 124 % of control.

Q: What about the T/C [9] of the same molecule?
A: Its T/C is 116 % of control.

Q: With `NC(=O)/C=C/C(=O)c1c(Cl)cccc1Cl` as the molecule, how does the T/C (dose: 0.79 mg/kg/injection, schedule: Q01DX009 (ip), vehicle: saline with Tween-80) read?
A: Its T/C is 111 % of control.

Q: And the T/C (dose: 1.56 mg/kg/injection, schedule: Q01DX009 (ip), vehicle: saline with Tween-80)?
A: Its T/C is 88 % of control.

Q: What about the T/C (dose: 3.12 mg/kg/injection, schedule: Q01DX009 (ip), vehicle: saline with Tween-80) of the same molecule?
A: Its T/C is 117 % of control.

Q: What about the T/C (dose: 6.25 mg/kg/injection, schedule: Q01DX009 (ip), vehicle: saline with Tween-80) of the same molecule?
A: Its T/C is 103 % of control.

Q: What about the T/C [10] of the same molecule?
A: The T/C was 108 % of control.

Q: For `O=CC(O)C(O)C(O)C(O)CO` (centres undefined), which T/C (dose: 75.0 mg/kg/injection, schedule: Q01DX009 (ip), vehicle: saline) is on record?
A: Its T/C is 101 % of control.

Q: And the T/C (dose: 150.0 mg/kg/injection, schedule: Q01DX009 (ip), vehicle: saline)?
A: Its T/C is 97 % of control.

Q: What about the T/C (dose: 300.0 mg/kg/injection, schedule: Q01DX009 (ip), vehicle: saline) of the same molecule?
A: The T/C was 97 % of control.

Q: What about the T/C (dose: 600.0 mg/kg/injection, schedule: Q01DX009 (ip), vehicle: saline) of the same molecule?
A: The T/C was 97 % of control.

Q: And the T/C (dose: 1200.0 mg/kg/injection, schedule: Q01DX009 (ip), vehicle: saline)?
A: The T/C was 96 % of control.

Q: For `CCCCC(=O)OCC1OC(n2cnc3c(=S)nc[nH]c32)C(OC(=O)CCCC)C1OC(=O)CCCC` (centres undefined), which T/C [10] is on record?
A: The T/C was 99 % of control.

Q: And the T/C [11]?
A: Its T/C is 100 % of control.

Q: `CN(C)N=Nc1ccccc1` was tested. Which T/C [4] did it give?
A: The T/C was 108 % of control.

Q: What about the T/C [5] of the same molecule?
A: The T/C was 115 % of control.

Q: For `CCC1CC2CN(CCc3c([nH]c4ccccc34)C(C(=O)OC)(c3cc4c(cc3OC)N(C)C3C(O)(C(=O)OC)C(OC(C)=O)C5(CC)C=CCN6CCC43C65)C2)C1` (centres undefined), which T/C (dose: 0.06 mg/kg/injection, schedule: Q01DX009 (ip), vehicle: suspension in saline) is on record?
A: The T/C was 103 % of control.

Q: And the T/C (dose: 0.12 mg/kg/injection, schedule: Q01DX009 (ip), vehicle: suspension in saline)?
A: The T/C was 102 % of control.

Q: What about the T/C (dose: 0.25 mg/kg/injection, schedule: Q01DX009 (ip), vehicle: suspension in saline) of the same molecule?
A: The T/C was 108 % of control.

Q: And the T/C (dose: 0.5 mg/kg/injection, schedule: Q01DX009 (ip), vehicle: suspension in saline)?
A: The T/C was 103 % of control.

Q: And the T/C (dose: 1.0 mg/kg/injection, schedule: Q01DX009 (ip), vehicle: suspension in saline)?
A: The T/C was 112 % of control.

Q: And the T/C (dose: 2.0 mg/kg/injection, schedule: Q01DX009 (ip), vehicle: suspension in saline)?
A: Its T/C is 102 % of control.

Q: Which results are given for `ClCCCN1CCCCC1CCl` (centres undefined)?
A: T/C (dose: 0.78 mg/kg/injection, schedule: Q01DX009 (ip), vehicle: saline): 101 % of control; T/C (dose: 1.56 mg/kg/injection, schedule: Q01DX009 (ip), vehicle: saline): 108 % of control; T/C (dose: 3.12 mg/kg/injection, schedule: Q01DX009 (ip), vehicle: saline): 98 % of control; T/C (dose: 6.25 mg/kg/injection, schedule: Q01DX009 (ip), vehicle: saline): 101 % of control; T/C [6]: 121 % of control

Q: `CCOC(=O)C1(c2ccccc2)C(=O)Oc2ccccc21` (centres undefined) was tested. Which T/C [10] did it give?
A: Its T/C is 97 % of control.

Q: What about the T/C [11] of the same molecule?
A: The T/C was 97 % of control.

Q: What about the T/C [1] of the same molecule?
A: Its T/C is 96 % of control.

Q: And the T/C [2]?
A: The T/C was 97 % of control.

Q: And the T/C [3]?
A: The T/C was 99 % of control.

Q: And the T/C (dose: 400.0 mg/kg/injection, schedule: Q01DX009 (ip), vehicle: saline with Tween-80)?
A: The T/C was 99 % of control.
